Results reported in PubChem BioAssay AID1949 (Southern Research Institute, 2009).
≈ marks a conversion by molar mass, not a printed value. Results filed as inconclusive are left out. Calls of active or inactive are those of the source. How the calls were made is not given here.

Each compound was assayed on M. tuberculosis H37Rv growth inhibition (assay: Mycobacterium tuberculosis H37Rv growth inhibition, cell based, confirmatory dose response (AID 1949);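 further: bacteria grown 7 days with compound before Alamar blue readout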).

**Q.** How did the IC50 turn out when `O=C(Oc1cccc2cccnc12)c1cccc([N+](=O)[O-])c1` was run?
**A.** Its IC50 is 10.8 µg/mL (≈ 36.7 µM).

**Q.** With `O=C(CCN1C(=O)C2C3C=CC(C3)C2C1=O)Oc1cccc2cccnc12` (stereo not drawn) as the compound, how does the IC50 read?
**A.** The IC50 was 14.8 µg/mL (≈ 40.7 µM).

**Q.** With `CCCCOc1ccc(NC2=NC3(CCCCC3)N=C(N)N2)cc1` as the compound, how does the IC50 read?
**A.** Its IC50 is 12.1 µg/mL (≈ 36.6 µM).

**Q.** With `CC(C)C1C(c2ccccc2)NC(c2ccccc2)CC1(O)C#Cc1ccccc1` (stereo not drawn) as the compound, how does the IC50 read?
**A.** The IC50 was 9.22 µg/mL (≈ 23.3 µM).

**Q.** `CCn1c(/C=C/c2ccc([N+](=O)[O-])o2)nc2ccc(I)cc2c1=O` was tested. Which IC50 did it give?
**A.** Its IC50 is 2.04 µg/mL (≈ 4.67 µM).

**Q.** For `CCC(=O)N1CCN(c2ccc(Cl)cc2NC(=O)CC23CC4CC(CC(C4)C2)C3)CC1`, which IC50 is on record?
**A.** The IC50 was 6.98 µg/mL (≈ 15.7 µM).

**Q.** How did the IC50 turn out when `CCC(=O)NC(=S)Nc1ccc(NC(=O)c2cc(I)ccc2Cl)cc1` was run?
**A.** Its IC50 is 0.43 µg/mL (≈ 0.882 µM).

**Q.** How did the IC50 turn out when `OC(CNC1CCCC1)Cn1c2ccccc2c2ccccc21` (stereo not drawn) was run?
**A.** Its IC50 is 8.93 µg/mL (≈ 29 µM).

**Q.** Which IC50 does the source give for `CCOc1ccc(-c2[nH]ncc2-c2ccccc2)c(O)c1C` here?
**A.** Its IC50 is 4.39 µg/mL (≈ 14.9 µM).

**Q.** `Cc1c(OC(=O)c2ccccc2Cl)ccc2c1CCCC2` was tested. Which IC50 did it give?
**A.** Its IC50 is 2.51 µg/mL (≈ 8.34 µM).

**Q.** For `O=C(CC(O)(C(F)(F)F)C(F)(F)F)Nc1cc(Cl)ccc1Cl`, which IC50 is on record?
**A.** Its IC50 is 5.84 µg/mL (≈ 15.8 µM).

**Q.** How did the IC50 turn out when `O=C(Oc1cccc2cccnc12)c1ccccc1Br` was run?
**A.** Its IC50 is 1.36 µg/mL (≈ 4.14 µM).

**Q.** For `Cc1ccc(Cl)cc1N(CC(=O)Nc1ccc(I)cc1)S(C)(=O)=O`, which IC50 is on record?
**A.** The IC50 was 4.66 µg/mL (≈ 9.73 µM).

**Q.** How did the IC50 turn out when `Cc1cc(C)c2c(c1)c(-c1ccccc1)c(-c1ccccc1)n2CC(O)CN1CCN(CCO)CC1` (stereo not drawn) was run?
**A.** The IC50 was 3.02 µg/mL (≈ 6.24 µM).

**Q.** For `O=C(Nc1cccc(C(F)(F)F)c1)N1CCN(c2cccc(C(F)(F)F)c2)CC1`, which IC50 is on record?
**A.** The IC50 was 5.09 µg/mL (≈ 12.2 µM).

**Q.** Which IC50 does the source give for `O=C(NC1C2CC3CC(C2)CC1C3)c1ccc(-c2ccc(Cl)cc2)o1` (stereo not drawn) here?
**A.** The IC50 was 10.9 µg/mL (≈ 30.8 µM).

**Q.** `CCOC(=O)c1c(-c2cccs2)csc1NC(=O)c1cc2ccccc2oc1=O` was tested. Which IC50 did it give?
**A.** The IC50 was 4.76 µg/mL (≈ 11.2 µM).

**Q.** How did the IC50 turn out when `CCOc1ccc(Nc2cc(C)nc3ccc(C(=O)OC)cc23)cc1` was run?
**A.** The IC50 was 3.71 µg/mL (≈ 11 µM).

**Q.** Which IC50 does the source give for `O=C1N(Cc2ccccc2Cl)c2ccc(Br)cc2C1(O)c1c[nH]c2ccccc12` (stereo not drawn) here?
**A.** Its IC50 is 1.68 µg/mL (≈ 3.59 µM).

**Q.** How did the IC50 turn out when `CCc1nc2sc(C(=O)c3ccccc3)c(N)c2cc1C` was run?
**A.** The IC50 was > 50 µg/mL (inactive).

**Q.** How did the IC50 turn out when `COc1ccc(CCNC(=S)NC23CC4CC(CC(C4)C2)C3)cc1` was run?
**A.** The IC50 was 7.85 µg/mL (≈ 22.8 µM).

**Q.** How did the IC50 turn out when `CN(C)CC1CC(C(C)(C)C)CCC1=O` (stereo not drawn) was run?
**A.** The IC50 was 2.45 µg/mL (≈ 11.6 µM).

**Q.** `CC(Oc1ccc(C(=O)NCCc2ccccc2)cc1)C(=O)OCc1ccccc1` (stereo not drawn) was tested. Which IC50 did it give?
**A.** Its IC50 is 2.32 µg/mL (≈ 5.75 µM).

**Q.** `O=C(NC1CC1c1ccccc1)C12CC3CC(CC(C3)C1)C2` (stereo not drawn) was tested. Which IC50 did it give?
**A.** The IC50 was 14.6 µg/mL (≈ 49.5 µM).

**Q.** How did the IC50 turn out when `COc1cccc(N2CCN(C(=O)Nc3ccc(Cl)c(Cl)c3)CC2)c1` was run?
**A.** The IC50 was 9.41 µg/mL (≈ 24.7 µM).

**Q.** Which IC50 does the source give for `S=C(NCCCN1CCN(c2ccc(Cl)cc2)CC1)Nc1cccc(Cl)c1` here?
**A.** Its IC50 is 3 µg/mL (≈ 7.09 µM).

**Q.** For `CCCC(=O)NC(=S)Nc1cccc(C(F)(F)F)c1`, which IC50 is on record?
**A.** The IC50 was 2.69 µg/mL (≈ 9.27 µM).

**Q.** For `O=c1c(Cl)c(Cl)cnn1Cc1ccccc1Cl`, which IC50 is on record?
**A.** The IC50 was 9.65 µg/mL (≈ 33.3 µM).

**Q.** `CNc1nc(N2CCc3ccccc32)ncc1F` was tested. Which IC50 did it give?
**A.** The IC50 was 0.91 µg/mL (≈ 3.73 µM).

**Q.** `O=C1c2ccccc2C(=O)c2c1nc1ccccn21` was tested. Which IC50 did it give?
**A.** The IC50 was 2.87 µg/mL (≈ 11.6 µM).

**Q.** `O=C(Nc1ccc(Cl)c(Cl)c1)Nc1ccc(Br)cc1F` was tested. Which IC50 did it give?
**A.** The IC50 was 0.37 µg/mL (≈ 0.979 µM).

**Q.** With `CCOC(=O)c1ccc(COC(=O)c2cccc([N+](=O)[O-])c2)cc1` as the compound, how does the IC50 read?
**A.** Its IC50 is 1.11 µg/mL (≈ 3.37 µM).

**Q.** With `c1ccc(CNCCCOc2cccc3ccccc23)cc1` as the compound, how does the IC50 read?
**A.** The IC50 was 4.89 µg/mL (≈ 16.8 µM).

**Q.** For `Cc1ccc(C(=O)NC(=S)Nc2ccc(S(=O)(=O)NC(C)C)cc2)cc1Br`, which IC50 is on record?
**A.** Its IC50 is 3.75 µg/mL (≈ 7.97 µM).

**Q.** With `O=c1c2cccc3c2c(nn1CCN1CCCCC1)-c1ccccc1-3` as the compound, how does the IC50 read?
**A.** Its IC50 is 2.84 µg/mL (≈ 8.57 µM).

**Q.** For `CC1CN(c2ccc([N+](=O)[O-])cc2)CCN1C(=O)c1cccc(Br)c1` (stereo not drawn), which IC50 is on record?
**A.** The IC50 was 2.83 µg/mL (≈ 7 µM).

**Q.** How did the IC50 turn out when `CCn1nnc(NC(=O)c2sc3ccccc3c2Cl)n1` was run?
**A.** Its IC50 is 3.02 µg/mL (≈ 9.81 µM).

**Q.** Which IC50 does the source give for `CCn1c2ccccc2c2cc(CN3CCC(N4CCN(c5ccccc5)CC4)CC3)ccc21` here?
**A.** Its IC50 is 1.45 µg/mL (≈ 3.2 µM).

**Q.** Which IC50 does the source give for `Cc1cc(O)ccc1Nc1nc(-c2ccccn2)cs1` here?
**A.** The IC50 was 1.42 µg/mL (≈ 5.01 µM).

**Q.** `O=C(Nc1ccc(OC(F)(F)C(F)F)cc1)Nc1cccc(Cl)c1` was tested. Which IC50 did it give?
**A.** The IC50 was 0.75 µg/mL (≈ 2.07 µM).

**Q.** How did the IC50 turn out when `c1ccc(OCCCCn2cnc3ccccc32)cc1` was run?
**A.** The IC50 was 16 µg/mL (≈ 60.2 µM).

**Q.** With `Cc1ccc(-c2cc(C(F)F)n3ncc(C(=O)N4CCc5ccccc5C4)c3n2)cc1` as the compound, how does the IC50 read?
**A.** Its IC50 is 38.3 µg/mL (≈ 91.6 µM).

**Q.** `Cc1ccc(-n2sc3ccccc3c2=O)cc1` was tested. Which IC50 did it give?
**A.** The IC50 was less than 0.1 µg/mL.

**Q.** How did the IC50 turn out when `Cc1ccc2c(C)nc(Nc3nc(CSc4nc5ccccc5s4)cc(=O)[nH]3)nc2c1` was run?
**A.** Its IC50 is 0.38 µg/mL (≈ 0.851 µM).

**Q.** For `CC(C)(C)c1ccc(-c2noc(-c3cccnc3)n2)cc1`, which IC50 is on record?
**A.** The IC50 was 4.34 µg/mL (≈ 15.5 µM).

**Q.** For `CC(=O)Nc1nc2ccccc2n1CCOc1ccccc1`, which IC50 is on record?
**A.** The IC50 was 2.94 µg/mL (≈ 9.95 µM).

**Q.** With `CCC(Sc1nc2ccccc2o1)C(=O)Nc1nnc(C)s1` (stereo not drawn) as the compound, how does the IC50 read?
**A.** Its IC50 is 0.75 µg/mL (≈ 2.24 µM).

**Q.** For `CCC(Oc1ccc2c(-c3ccccc3)cc(=O)oc2c1)C(=O)OCc1ccccc1` (stereo not drawn), which IC50 is on record?
**A.** Its IC50 is 3.8 µg/mL (≈ 9.17 µM).

**Q.** Which IC50 does the source give for `CCOC(=O)c1ccc(NC(=S)NCCN2CCc3ccccc3C2)cc1` here?
**A.** Its IC50 is 31 µg/mL (≈ 80.8 µM).

**Q.** `COCCNS(=O)(=O)c1ccc(-c2ccc(C)cc2)cc1` was tested. Which IC50 did it give?
**A.** The IC50 was 0.49 µg/mL (≈ 1.6 µM).

**Q.** For `Cc1csc(NC(=O)CSc2ccc(Br)cc2)n1`, which IC50 is on record?
**A.** Its IC50 is 5.62 µg/mL (≈ 16.4 µM).

**Q.** With `COc1ccccc1C(=O)NNC(=S)NC(=O)c1cccs1` as the compound, how does the IC50 read?
**A.** The IC50 was 0.15 µg/mL (≈ 0.447 µM).

**Q.** For `CCOc1ccc(NCCC(=O)c2ccc3c(c2)OCO3)cc1`, which IC50 is on record?
**A.** The IC50 was 3.32 µg/mL (≈ 10.6 µM).

**Q.** How did the IC50 turn out when `CC1CCCN(CCC(=O)c2ccc(Br)cc2)C1` (stereo not drawn) was run?
**A.** Its IC50 is 2.8 µg/mL (≈ 9.03 µM).

**Q.** How did the IC50 turn out when `S=C(NCCc1ccccc1)Nc1ccc(Nc2ccccc2)cc1` was run?
**A.** Its IC50 is 3.85 µg/mL (≈ 11.1 µM).

**Q.** With `O=S(=O)(Nc1cc(Sc2cccc3cccnc23)c(O)c2ccccc12)c1ccccc1` as the compound, how does the IC50 read?
**A.** The IC50 was 0.18 µg/mL (≈ 0.393 µM).

**Q.** Which IC50 does the source give for `COc1cc(/C=C/[N+](=O)[O-])cc(Cl)c1OCc1ccccc1C#N` here?
**A.** Its IC50 is 17.9 µg/mL (≈ 51.8 µM).

**Q.** Which IC50 does the source give for `Cc1cccc(-n2nc([N+](=O)[O-])c(=NCCC3=CCCCC3)n2O)c1` here?
**A.** Its IC50 is 3.62 µg/mL (≈ 10.5 µM).
